Results taken from patent US20100226881A1, “PYRAZOLO[1,5-a]PYRIDINES AND THEIR USE IN CANCER THERAPY” (Auckland Uniservices Limited, priority 2007, published 2010).
Where two headings read alike, the source gives them in different places.

Assays:
p110α/p85 = p110α/p85 (Homo sapiens, UniProt P42336); experiment: Inhibition of isolated enzyme, PI 3-kinase p110α/p85
p110β/p85 = p110β/p85 (Homo sapiens, UniProt P42338); experiment: Inhibition of isolated enzyme, PI 3-kinase p110β/p85; format: biochemical; details: recombinant enzyme, 100 μM ATP, average of two experiments
Description: (§1) Compounds were evaluated for their ability to inhibit the Class I PI 3-kinase enzymes p110δ/p85, p110α/p85 and p110β/p85. Reaction mixtures comprising 0.1 μg of recombinant enzyme, 10 μg of L-α-phosphatidylinositol, the compound (DMSO only or DMSO+compound to a final concentration of 1%), 2× Lipid Kinase Buffer (40 mM Tris-HCl pH 7.4, 200 mM NaCl, 1 mM EDTA) were activated by the addition of an ATP mix (5 mM MgCl2, 100 μM ATP, 0.1 μL [γ^33P]ATP). […] Firstly, 200 μL of chloroform/methanol (1:1) was added, the biphasic reactions mixed and centrifuged briefly, and the inorganic phase was removed and discarded.

p110δ/p85 = p110δ/p85 (Homo sapiens, UniProt O00329); experiment: Inhibition of isolated enzyme, PI 3-kinase p110δ/p85; format: biochemical; details: recombinant enzyme, 100 μM ATP, average of two experiments
Description: as §1

NZOV9 = experiment: Cellular growth inhibition (3H-thymidine), NZOV9; format: cell-based; details: Homo sapiens, five days, 3H-thymidine incorporation, maximum 20 μM
Description: (§2) The compounds were evaluated against two early passage human cell lines NZB5 and NZOV9, whose development and culture have been described [Marshall et al, Oncol. Res. 2004, 14, 297]. The cells were grown in ITS medium (α-modified minimal essential medium supplemented insulin, transferrin, selenite and 5% fetal bovine serum) and grown on 96-well tissue culture plates under an atmosphere of 5% O2, 5% CO2 and 90% N2. Individual wells contained 500-1000 cells (depending on the growth rate) in a volume of 150 μL. Compounds were added at 10-fold concentration steps to a maximum of 20 μM and plates were incubated for five days, with ^3H-thymidine being added over the last 6 h. Cells were harvested and incorporated radioactivity measured. Duplicate samples were analyzed for each compound dose with multiple control samples. Data were fitted by a least-squares method to an exponential of the form y=y0+ae^−bx, where y is the radioactivity (corrected for background and normalized to 100% of the control) x is the radiation dose, and y0, a and b are variables, and the IC50 value defined as the compound concentration reducing ^3H-thymidine levels by 50%.

NZB5 = experiment: Cellular growth inhibition (3H-thymidine), NZB5; format: cell-based; details: Homo sapiens, five days, 3H-thymidine incorporation, maximum 20 μM
Description: as §2

[1] = read-out: IC50 (nM) p110α, recombinant enzyme, 100 μM ATP, average of two experiments

Chain of p110α/p85 (P42336 whole entry, species assumed): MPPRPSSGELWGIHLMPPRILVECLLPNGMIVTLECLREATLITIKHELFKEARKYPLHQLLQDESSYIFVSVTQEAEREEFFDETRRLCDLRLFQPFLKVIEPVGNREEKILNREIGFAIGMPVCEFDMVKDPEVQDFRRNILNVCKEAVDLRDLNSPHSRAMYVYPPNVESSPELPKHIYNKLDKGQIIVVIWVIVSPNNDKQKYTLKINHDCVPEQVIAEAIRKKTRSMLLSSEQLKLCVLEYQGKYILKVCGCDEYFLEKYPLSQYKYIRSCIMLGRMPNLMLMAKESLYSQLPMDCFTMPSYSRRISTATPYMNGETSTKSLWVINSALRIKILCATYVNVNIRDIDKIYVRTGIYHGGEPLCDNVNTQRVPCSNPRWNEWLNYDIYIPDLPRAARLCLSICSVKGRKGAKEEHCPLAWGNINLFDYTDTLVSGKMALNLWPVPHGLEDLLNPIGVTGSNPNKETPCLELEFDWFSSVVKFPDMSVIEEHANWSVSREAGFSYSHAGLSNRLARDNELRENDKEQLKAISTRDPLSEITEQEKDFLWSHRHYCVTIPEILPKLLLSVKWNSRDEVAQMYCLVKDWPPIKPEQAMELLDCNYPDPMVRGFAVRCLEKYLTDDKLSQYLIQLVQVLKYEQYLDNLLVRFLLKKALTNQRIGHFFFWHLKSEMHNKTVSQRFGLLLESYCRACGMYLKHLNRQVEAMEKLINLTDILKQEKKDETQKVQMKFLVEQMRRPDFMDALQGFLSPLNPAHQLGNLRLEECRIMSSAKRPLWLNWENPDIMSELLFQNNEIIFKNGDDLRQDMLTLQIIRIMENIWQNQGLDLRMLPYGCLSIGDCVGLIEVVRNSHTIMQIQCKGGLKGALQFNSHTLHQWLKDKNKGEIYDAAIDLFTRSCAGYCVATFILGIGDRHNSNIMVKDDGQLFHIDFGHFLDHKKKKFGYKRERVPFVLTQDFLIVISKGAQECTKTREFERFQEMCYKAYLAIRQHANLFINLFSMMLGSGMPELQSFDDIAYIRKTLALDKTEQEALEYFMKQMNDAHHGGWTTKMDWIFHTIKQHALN
Chain of p110α/p85 (P27986 whole entry partner, species assumed): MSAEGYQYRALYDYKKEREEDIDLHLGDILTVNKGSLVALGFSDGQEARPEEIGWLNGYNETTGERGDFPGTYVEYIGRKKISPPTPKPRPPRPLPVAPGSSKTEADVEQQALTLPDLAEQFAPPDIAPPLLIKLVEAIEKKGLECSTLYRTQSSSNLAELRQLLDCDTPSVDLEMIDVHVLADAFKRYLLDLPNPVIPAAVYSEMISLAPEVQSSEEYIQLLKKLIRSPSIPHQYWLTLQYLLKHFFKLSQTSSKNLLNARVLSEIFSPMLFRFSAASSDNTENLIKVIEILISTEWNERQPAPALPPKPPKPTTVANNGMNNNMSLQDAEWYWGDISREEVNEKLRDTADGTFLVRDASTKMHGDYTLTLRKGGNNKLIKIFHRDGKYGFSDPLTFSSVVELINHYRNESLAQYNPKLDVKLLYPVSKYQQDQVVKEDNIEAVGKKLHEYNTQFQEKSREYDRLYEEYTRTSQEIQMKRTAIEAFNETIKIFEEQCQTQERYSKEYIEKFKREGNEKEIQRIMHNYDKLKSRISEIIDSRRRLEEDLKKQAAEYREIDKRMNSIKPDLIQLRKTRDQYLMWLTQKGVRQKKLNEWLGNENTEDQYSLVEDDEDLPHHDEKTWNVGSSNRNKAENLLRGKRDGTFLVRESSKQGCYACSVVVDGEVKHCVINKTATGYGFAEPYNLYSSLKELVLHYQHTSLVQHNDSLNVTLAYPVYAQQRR
Chain of p110β/p85 (P42338 whole entry, species assumed): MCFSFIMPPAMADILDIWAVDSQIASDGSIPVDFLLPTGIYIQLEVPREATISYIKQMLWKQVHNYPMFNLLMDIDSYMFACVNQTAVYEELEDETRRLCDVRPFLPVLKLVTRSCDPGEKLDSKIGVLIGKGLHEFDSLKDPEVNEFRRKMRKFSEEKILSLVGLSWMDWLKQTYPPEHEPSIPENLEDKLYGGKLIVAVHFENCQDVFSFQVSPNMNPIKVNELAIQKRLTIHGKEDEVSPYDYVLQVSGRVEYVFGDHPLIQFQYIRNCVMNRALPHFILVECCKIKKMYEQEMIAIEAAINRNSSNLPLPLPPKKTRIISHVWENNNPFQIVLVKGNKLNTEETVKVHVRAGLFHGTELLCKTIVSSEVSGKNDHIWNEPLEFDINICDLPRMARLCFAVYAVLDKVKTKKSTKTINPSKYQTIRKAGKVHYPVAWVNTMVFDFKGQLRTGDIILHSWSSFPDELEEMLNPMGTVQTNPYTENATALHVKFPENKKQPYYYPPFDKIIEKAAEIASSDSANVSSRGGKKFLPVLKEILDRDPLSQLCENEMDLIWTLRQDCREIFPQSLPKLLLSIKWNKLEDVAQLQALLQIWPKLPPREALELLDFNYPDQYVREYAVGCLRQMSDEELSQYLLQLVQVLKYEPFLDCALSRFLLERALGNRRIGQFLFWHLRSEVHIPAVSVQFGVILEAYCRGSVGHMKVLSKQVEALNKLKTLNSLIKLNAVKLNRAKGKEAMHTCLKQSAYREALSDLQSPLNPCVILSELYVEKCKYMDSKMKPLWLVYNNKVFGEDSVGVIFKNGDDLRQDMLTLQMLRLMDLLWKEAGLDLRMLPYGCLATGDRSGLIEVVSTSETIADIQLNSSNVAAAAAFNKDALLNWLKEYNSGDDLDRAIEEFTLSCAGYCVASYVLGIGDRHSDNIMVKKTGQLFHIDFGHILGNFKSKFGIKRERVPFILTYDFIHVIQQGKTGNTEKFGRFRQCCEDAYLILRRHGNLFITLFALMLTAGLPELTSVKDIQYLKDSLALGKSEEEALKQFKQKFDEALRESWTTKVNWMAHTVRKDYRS
Chain of p110β/p85 (P27986 whole entry partner, species assumed): as the sequence (P27986 whole entry partner, species assumed) above
Chain of p110δ/p85 (O00329 whole entry, species assumed): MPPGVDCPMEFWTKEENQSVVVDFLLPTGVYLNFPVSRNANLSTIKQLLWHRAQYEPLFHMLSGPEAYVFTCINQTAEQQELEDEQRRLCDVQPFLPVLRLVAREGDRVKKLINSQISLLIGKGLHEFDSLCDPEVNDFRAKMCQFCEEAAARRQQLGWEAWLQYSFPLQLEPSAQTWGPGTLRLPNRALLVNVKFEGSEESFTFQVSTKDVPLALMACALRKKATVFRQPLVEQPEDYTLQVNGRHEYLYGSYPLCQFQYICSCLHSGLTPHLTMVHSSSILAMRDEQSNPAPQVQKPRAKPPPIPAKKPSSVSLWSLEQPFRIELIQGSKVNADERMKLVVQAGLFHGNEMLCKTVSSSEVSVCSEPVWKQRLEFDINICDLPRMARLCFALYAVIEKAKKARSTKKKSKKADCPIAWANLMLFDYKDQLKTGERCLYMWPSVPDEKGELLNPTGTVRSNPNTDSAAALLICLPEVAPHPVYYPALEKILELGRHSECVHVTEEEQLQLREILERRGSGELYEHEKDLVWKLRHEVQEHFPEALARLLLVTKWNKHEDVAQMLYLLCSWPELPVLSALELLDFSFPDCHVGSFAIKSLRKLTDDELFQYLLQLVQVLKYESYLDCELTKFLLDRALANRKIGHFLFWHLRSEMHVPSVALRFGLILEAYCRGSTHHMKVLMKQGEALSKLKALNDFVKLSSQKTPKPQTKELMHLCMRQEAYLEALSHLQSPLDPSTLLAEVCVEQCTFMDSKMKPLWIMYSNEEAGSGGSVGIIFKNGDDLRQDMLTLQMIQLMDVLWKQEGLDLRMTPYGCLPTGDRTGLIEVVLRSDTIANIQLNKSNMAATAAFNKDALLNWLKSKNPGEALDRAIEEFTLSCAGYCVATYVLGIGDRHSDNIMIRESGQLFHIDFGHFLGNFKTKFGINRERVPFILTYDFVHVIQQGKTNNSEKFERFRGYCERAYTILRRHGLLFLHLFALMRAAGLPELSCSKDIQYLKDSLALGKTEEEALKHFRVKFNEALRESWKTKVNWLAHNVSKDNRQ
Chain of p110δ/p85 (P27986 whole entry partner, species assumed): as the sequence (P27986 whole entry partner, species assumed) above

Row | SMILES | IC50 (p110α/p85; [1]) [nM] | IC50 (p110β/p85) [nM] | IC50 (p110δ/p85) [nM] | IC50 (NZOV9) [µM] | IC50 (NZB5) [µM] | IC50 (p110α/p85) [nM]
1 | CN(N=Cc1cnn2ccc(C#N)cc12)S(=O)(=O)c1cc([N+](=O)[O-])cnc1Cl [E80, 2-Chloro-N′-((5-cyanopyrazolo[1,5-a]pyridin-3-yl)methylene)-N-methyl-5-nitropyridine-3-sulfonohydrazide] | 23 | 5800 | 230 | 3.4 | 7.9 | –
2 | CN(N=Cc1cnn2ccc(C#N)cc12)C(=O)c1cccc([N+](=O)[O-])c1 [E82, N′-((5-Cyanopyrazolo[1,5-a]pyridin-3-yl)methylene)-N-methyl-3-nitro-benzohydrazide] | 21 | 72 | 19 | 6 | 1.8 | –
3 | Cc1ccc([N+](=O)[O-])cc1CN(C)N=Cc1cnn2ccc(C#N)cc12 [E84, 3-((2-Methyl-2-(2-methyl-5-nitrobenzyl)hydrazono)methyl)pyrazolo[1,5-a]pyridine-5-carbonitrile] | 41 | 48 | 39 | 1.9 | 1.7 | –
4 | Cc1ccc([N+](=O)[O-])cc1S(=O)(=O)n1ccc(-c2cnn3ccc(Br)cc23)n1 [E88, 5-bromo-3-(1-(2-methyl-5-nitrophenylsulfonyl)-1H-pyrazol-3-yl)pyrazolo[1,5-a]pyridine] | 250 | > 1000 | 1450 | 0.07 | 0.08 | –
5 | O=[N+]([O-])c1cccc(S(=O)(=O)c2nc(-c3cnn4ccc(Br)cc34)cs2)c1 [E90, 4-(5-Bromopyrazolo[1,5-a]pyridin-3-yl)-2-(3-nitrophenylsulfonyl)thiazole] | 790 | 5500 | 250 | 0.61 | 0.18 | –
6 | Cc1ccc([N+](=O)[O-])cc1Sc1nnc(-c2cnn3ccc(Br)cc23)o1 [E91, 2-(5-Bromopyrazolo[1,5-a]pyridin-3-yl)-5-(2-methyl-5-nitrophenylthio)-1,3,4-oxadiazole] | – | > 1000 | 120 | 2.8 | 0.73 | 84
